Laboratory results as given in article PMC11794875, “Molecular basis for azetidine-2-carboxylic acid biosynthesis” (Nature Communications, 2025).
Read-outs that look alike come from different tables or passages of the source.

Assays:
AzeJ [1] = target: T1, AzeJ (Pseudomonas aeruginosa, UniProt Q9HYR0); experiment: X-ray crystal structure, […] Å; type: binding; conditions: co-crystallised with 2 mM SAM, pH 7.0 or 7.2, formed in crystal, active site
T1 construct: gene PA3335; N-terminal His6-SUMO fusion in pETDuet, codon-optimised, SUMO tag cleaved by Ulp1; E. coli BL21 Gold (DE3); homodimer
T1 sequence (Q9HYR0 entry or part of it): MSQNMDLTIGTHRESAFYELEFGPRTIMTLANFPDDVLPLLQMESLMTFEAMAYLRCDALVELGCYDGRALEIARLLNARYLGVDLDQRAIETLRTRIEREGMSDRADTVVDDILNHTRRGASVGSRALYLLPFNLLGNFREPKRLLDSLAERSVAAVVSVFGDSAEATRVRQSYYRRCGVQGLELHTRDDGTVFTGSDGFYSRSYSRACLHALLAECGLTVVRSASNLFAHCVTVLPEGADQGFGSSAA

AzeJ [2] = target: T1, AzeJ; type: binding; conditions: 100 mM Tris-HCl, pH 8.0, 10 µM protein
VioH = target: T2, VioH (Archangium violaceum, UniProt Z9G018KSM0); experiment: in vitro AZE synthase activity assay, HPLC; type: biochemical; conditions: without VioG partner
T2 construct: N-terminal His6-SUMO fusion in pETDuet, codon-optimised, SUMO tag cleaved by Ulp1; E. coli BL21 Gold (DE3); monomer
T2 sequence (Z9G018KSM0 1-236): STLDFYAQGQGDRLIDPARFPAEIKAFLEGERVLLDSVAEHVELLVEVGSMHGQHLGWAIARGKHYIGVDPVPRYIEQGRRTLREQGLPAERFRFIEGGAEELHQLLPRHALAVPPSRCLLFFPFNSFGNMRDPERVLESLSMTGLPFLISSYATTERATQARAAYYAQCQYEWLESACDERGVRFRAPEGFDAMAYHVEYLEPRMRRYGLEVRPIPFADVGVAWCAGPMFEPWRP

## O=C(O)[C@@H]1CCN1 [AZE, azetidine-2-carboxylic acid]
AzeJ [1]; with MTA
  X-ray crystal structure, 1.95 Å: Fo-Fc electron density maps reveal that MTA and AZE are bound to the active site

## CSC[C@H]1O[C@@H](n2cnc3c(N)ncnc32)[C@H](O)[C@@H]1O [MTA, 5′-methylthioadenosine]
AzeJ [1]; with AZE
  X-ray crystal structure, 1.95 Å: Fo-Fc electron density maps reveal that MTA and AZE are bound to the active site

## Nc1ncnc2c1ncn2[C@@H]1O[C@H](CSCC[C@H](N)C(=O)O)[C@@H](O)[C@H]1O [SAH, S-adenosyl-L-homocysteine]
AzeJ [2]; 0–1 mM SAH
  dTm: In the presence of SAM or SAH, the melting temperature of AzeJ increased

## C[S+](CC[C@H](N)C(=O)O)C[C@H]1O[C@@H](n2cnc3c(N)ncnc32)[C@H](O)[C@@H]1O (some centres unmarked) [SAM, S-adenosylmethionine]
AzeJ [2]; 0–1 mM SAM
  dTm: In the presence of SAM or SAH, the melting temperature of AzeJ increased
VioH
  in vitro AZE synthase activity assay, HPLC: in vitro observation that VioH alone had minimal catalytic activity (Fig. S8)
